Assay results as given in article PMC12067093, “Discovery and optimisation of a covalent ligand for TRIM25 and its application to targeted protein ubiquitination” (Chemical Science, 2025).

Target: T1, TRIM25 (full-length, His10-TRIM25) (Homo sapiens, UniProt Q14258)
T1 construct: Full-length recombinant TRIM25 was pre-treated with either DMSO, 10 or 11; made in house; host or cells: Sf9 insect cells
Assay: In vitro TRIM25 auto-ubiquitination time course assay
Type: biochemical
Conditions: TRIM25 4 μM pre-treated with compound 50 μM for 16 h at 4 °C, versus DMSO; assay 60 min at 30 °C
Procedure: 1 Glutathione reactivity assay
2 Glutathione consumption assay was outsourced to Cyprotex, where the experimental
3 procedure was optimised and performed. 10 mM DMSO stocks of fragments 1 and 2,
5 diluted with 5 mM glutathione in PBS. The reaction was shaken before incubation at
6 40 °C. The reaction mixture was analysed via UPLC-UV-MS up to eight times across
7 24 hours, compared to known reference compounds and samples of each compound
8 in distilled water. UPLC conditions: flow rate 800 µL/min on an Acquity UPLC BEH
9 C18 1.7 µm 2.1 x 50 mm column, with column temperature 37°C, monitored at 210 to
10 350 nm. Samples were run using a 2 min gradient elution from 97% mobile phase A
11 to 0% mobile phase A, where mobile phase A was 0.1% formic acid in H2O, and mobile
12 phase B was 0.1% formic acid in 100% MeCN. MS conditions: single quad, ESI+, with
13 scan range of 50 – 1000 Da. […]
15 (k) for each compound was determined from the slope of a linear regression fit for a […]
17 differential for the eight time points. t1/2 values were calculated as follows: t1/2 = 0.693/k. […]
2 indicates the sample taken prior to the addition of ATP. Samples were analysed by […]
16 added directly to the ubiquitination assay reaction mixture. Samples were analysed as […]
18 which was detected by anti-rabbit-HRP secondary antibody (Dako, P0399, 1:2000). […]
21 analysed in ImageLab (Bio-Rad). […]

T1 sequence (Q14258 whole entry): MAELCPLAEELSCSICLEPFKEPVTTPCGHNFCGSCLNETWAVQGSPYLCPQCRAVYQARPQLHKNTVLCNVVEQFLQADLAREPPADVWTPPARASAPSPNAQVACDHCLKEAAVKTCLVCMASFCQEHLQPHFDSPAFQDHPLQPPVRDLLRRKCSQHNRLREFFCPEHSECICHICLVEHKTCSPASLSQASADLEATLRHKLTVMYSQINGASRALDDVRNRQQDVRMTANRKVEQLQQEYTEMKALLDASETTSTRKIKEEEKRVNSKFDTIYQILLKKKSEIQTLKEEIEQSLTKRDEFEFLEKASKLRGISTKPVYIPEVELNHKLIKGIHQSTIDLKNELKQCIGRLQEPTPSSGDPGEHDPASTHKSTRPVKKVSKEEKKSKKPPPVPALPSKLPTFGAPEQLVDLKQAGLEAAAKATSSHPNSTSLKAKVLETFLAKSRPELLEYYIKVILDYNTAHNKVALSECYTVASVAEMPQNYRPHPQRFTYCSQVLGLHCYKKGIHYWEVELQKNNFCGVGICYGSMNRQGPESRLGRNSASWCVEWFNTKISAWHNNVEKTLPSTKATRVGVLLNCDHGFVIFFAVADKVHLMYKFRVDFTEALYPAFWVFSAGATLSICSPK

rate of TRIM25 auto-ubiquitination | Compound
significantly increased | Cc1cc(C(=O)N2CCCN(C(=O)CCl)CC2)ccc1-c1ccccc1 [Compound 10]
significantly increased | CC1Cc2ccccc2N1C(=O)C1CCCN(C(=O)CCl)C1 (centres unmarked) [Compound 11]
